Assay results: patent US7491819B1 (priority 2004, dated 2009)

Each compound was assayed against T1, HIV-integrase (Human immunodeficiency virus type 1 group M subtype B, UniProt P12497) (assay: HIV-Integrase Inhibition Activity (SPA bead strand-transfer assay)). Details: Table 1; read-out: Activity (HIV-integrase inhibition, IC50 class).
T1 construct: Recombinant integrase (0.26 ng) was incubated with the beads
Format: biochemical
Summary of the method: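 Strand-transfer read-out: CPM from P33-labelled target DNA (0.1 fmol) joined to bead-bound biotin substrate DNA (5 pmole), with EDTA stop at 10 mM final. Integrase (0.26 ng) prebound to streptavidin SPA beads 90 min, 37° C, and washed before adding inhibitor.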

Compound | IC50 [µM]
Cc1ccc(CNC(=O)c2nc3n(c(=O)c2O)CCOC3(C)C)cc1F [Example 248, Pyrimido[2,1-c][1,4]oxazine-2-carboxamide, N-[(3-fluoro-4-methylphenyl)methyl]-4,6,7,9-tetrahydro-3-hydroxy-9,9-dimethyl-4-oxo-] | 0.002 to 0.1
CCOc1cccc(CNC(=O)c2nc3n(c(=O)c2O)CCOC3(C)C)c1 [Example 249, Pyrimido[2,1-c][1,4]oxazine-2-carboxamide, N-[(3-ethoxyphenyl)methyl]-4,6,7,9-tetrahydro-3-hydroxy-9,9-dimethyl-4-oxo-] | 0.002 to 0.1
CC1(C)OCCn2c1nc(C(=O)NCc1ccc3c(c1)CCO3)c(O)c2=O [Example 250, Pyrimido[2,1-c][1,4]oxazine-2-carboxamide, N-[(2,3-dihydro-5-benzofuranyl)methyl]-4,6,7,9-tetrahydro-3-hydroxy-9,9-dimethyl-4-oxo-] | 0.002 to 0.1
Cc1ccc(Cl)cc1CNC(=O)c1nc2n(c(=O)c1O)CCOC2(C)C [Example 251, Pyrimido[2,1-c][1,4]oxazine-2-carboxamide, N-[(5-chloro-2-methylphenyl)methyl]-4,6,7,9-tetrahydro-3-hydroxy-9,9-dimethyl-4-oxo-] | 0.002 to 0.1
CC1(C)OCCn2c1nc(C(=O)NCc1cccc(-n3cccn3)c1)c(O)c2=O [Example 252, Pyrimido[2,1-c][1,4]oxazine-2-carboxamide, 4,6,7,9-tetrahydro-3-hydroxy-9,9-dimethyl-4-oxo-N-[[3-(1H-pyrazol-1-yl)phenyl]methyl]-] | 0.1 to 1
CC1(C)OCCn2c1nc(C(=O)NCc1ccc(N3CCOCC3)cc1)c(O)c2=O [Example 253, Pyrimido[2,1-c][1,4]oxazine-2-carboxamide, 4,6,7,9-tetrahydro-3-hydroxy-9,9-dimethyl-N-[[4-(4-morpholinyl)phenyl]methyl]-4-oxo-] | > 1
CC1(C)OCCn2c1nc(C(=O)NCc1ccccc1N1CCCCC1)c(O)c2=O [Example 254, Pyrimido[2,1-c][1,4]oxazine-2-carboxamide, 4,6,7,9-tetrahydro-3-hydroxy-9,9-dimethyl-4-oxo-N-[[2-(1-piperidinyl)phenyl]methyl]-] | 0.002 to 0.1
CC1(C)OCCn2c1nc(C(=O)NCc1ccccc1N)c(O)c2=O [Example 255, Pyrimido[2,1-c][1,4]oxazine-2-carboxamide, N-[(2-aminophenyl)methyl]-4,6,7,9-tetrahydro-3-hydroxy-9,9-dimethyl-4-oxo-] | 0.002 to 0.1
CC1(C)OCCn2c1nc(C(=O)NCc1ccc(N)cc1)c(O)c2=O [Example 256, Pyrimido[2,1-c][1,4]oxazine-2-carboxamide, N-[(4-aminophenyl)methyl]-4,6,7,9-tetrahydro-3-hydroxy-9,9-dimethyl-4-oxo-] | 0.1 to 1
CN(C)c1ccc(CNC(=O)c2nc3n(c(=O)c2O)CCOC3(C)C)cc1 [Example 257, Pyrimido[2,1-c][1,4]oxazine-2-carboxamide, N-[[4-(dimethylamino)phenyl]methyl]-4,6,7,9-tetrahydro-3-hydroxy-9,9-dimethyl-4-oxo-] | 0.002 to 0.1
CC1(C)OCCn2c1nc(C(=O)NCc1ccccc1O)c(O)c2=O [Example 258, Pyrimido[2,1-c][1,4]oxazine-2-carboxamide, 4,6,7,9-tetrahydro-3-hydroxy-N-[(2-hydroxyphenyl)methyl]-9,9-dimethyl-4-oxo-] | 0.002 to 0.1
CC1(C)OCCn2c1nc(C(=O)NCc1ccc(O)cc1)c(O)c2=O [Example 259, Pyrimido[2,1-c][1,4]oxazine-2-carboxamide, 4,6,7,9-tetrahydro-3-hydroxy-N-[(4-hydroxyphenyl)methyl]-9,9-dimethyl-4-oxo-] | 0.002 to 0.1
CC1(C)OCCn2c1nc(C(=O)NCc1ccccc1N1CCOCC1)c(O)c2=O [Example 260, Pyrimido[2,1-c][1,4]oxazine-2-carboxamide, 4,6,7,9-tetrahydro-3-hydroxy-9,9-dimethyl-N-[[2-(4-morpholinyl)phenyl]methyl]-4-oxo-] | 0.002 to 0.1
CC(C)(C)OC(=O)N1CCN(c2ccccc2CNC(=O)c2nc3n(c(=O)c2O)CCOC3(C)C)CC1 [Example 261, 1-piperazinecarboxylic acid, 4-[2-[[[(4,6,7,9-tetrahydro-3-hydroxy-9,9-dimethyl-4-oxopyrimido[2,1-c][1,4]oxazin-2-yl)carbonyl]amino]methyl]phenyl]-, 1,1-dimethylethyl ester] | 0.002 to 0.1
CC(C)Oc1ccccc1CNC(=O)c1nc2n(c(=O)c1O)CCOC2(C)C [Example 262, Pyrimido[2,1-c][1,4]oxazine-2-carboxamide, 4,6,7,9-tetrahydro-3-hydroxy-9,9-dimethyl-N-[[2-(1-methylethoxy)phenyl]methyl]-4-oxo-] | 0.002 to 0.1
CC(C)Oc1cccc(CNC(=O)c2nc3n(c(=O)c2O)CCOC3(C)C)c1 [Example 263, Pyrimido[2,1-c][1,4]oxazine-2-carboxamide, 4,6,7,9-tetrahydro-3-hydroxy-9,9-dimethyl-N-[[3-(1-methylethoxy)phenyl]methyl]-4-oxo-] | 0.002 to 0.1

Compound | IC50 [µM]
COC(=O)c1cccc(CNC(=O)c2nc3n(c(=O)c2O)CCOC3(C)C)c1 [Example 264, Benzoic acid, 3-[[[(4,6,7,9-tetrahydro-3-hydroxy-9,9-dimethyl-4-oxopyrimido[2,1-c][1,4]oxazin-2-yl)carbonyl]amino]methyl]-, methyl ester] | 0.002 to 0.1
CC1(C)OCCn2c1nc(C(=O)NCc1ccc(C#N)cc1)c(O)c2=O [Example 265, Pyrimido[2,1-c][1,4]oxazine-2-carboxamide, N-[(4-cyanophenyl)methyl]-4,6,7,9-tetrahydro-3-hydroxy-9,9-dimethyl-4-oxo-] | 0.002 to 0.1
CC1(C)OCCn2c1nc(C(=O)NCc1cccc(Cl)c1F)c(O)c2=O [Example 266, Pyrimido[2,1-c][1,4]oxazine-2-carboxamide, N-[(3-chloro-2-fluorophenyl)methyl]-4,6,7,9-tetrahydro-3-hydroxy-9,9-dimethyl-4-oxo-] | 0.002 to 0.1
CC1(C)OCCn2c1nc(C(=O)NCc1cccc3c1OCCO3)c(O)c2=O [Example 267, Pyrimido[2,1-c][1,4]oxazine-2-carboxamide, N-[(2,3-dihydro-1,4-benzodioxin-5-yl)methyl]-4,6,7,9-tetrahydro-3-hydroxy-9,9-dimethyl-4-oxo-] | 0.002 to 0.1
CC1(C)OCCn2c1nc(C(=O)NCc1cccc3c1OCCCO3)c(O)c2=O [Example 268, Pyrimido[2,1-c][1,4]oxazine-2-carboxamide, N-[(3,4-dihydro-2H-1,5-benzodioxepin-6-yl)methyl]-4,6,7,9-tetrahydro-3-hydroxy-9,9-dimethyl-4-oxo-] | 0.002 to 0.1
Cc1ccc(C)c(CNC(=O)c2nc3n(c(=O)c2O)CCOC3(C)C)c1 [Example 269, Pyrimido[2,1-c][1,4]oxazine-2-carboxamide, N-[(2,5-dimethylphenyl)methyl]-4,6,7,9-tetrahydro-3-hydroxy-9,9-dimethyl-4-oxo-] | 0.002 to 0.1
CC1(C)OCCn2c1nc(C(=O)NCc1ccc(Cl)cc1Cl)c(O)c2=O [Example 271, Pyrimido[2,1-c][1,4]oxazine-2-carboxamide, N-[(2,4-dichlorophenyl)methyl]-4,6,7,9-tetrahydro-3-hydroxy-9,9-dimethyl-4-oxo-] | 0.002 to 0.1
Cc1cc(Cl)ccc1CNC(=O)c1nc2n(c(=O)c1O)CCOC2(C)C [Example 272, Pyrimido[2,1-c][1,4]oxazine-2-carboxamide, N-[(4-chloro-2-methylphenyl)methyl]-4,6,7,9-tetrahydro-3-hydroxy-9,9-dimethyl-4-oxo-] | 0.002 to 0.1
CC1(C)OCCn2c1nc(C(=O)NCc1c(F)cccc1Cl)c(O)c2=O [Example 273, Pyrimido[2,1-c][1,4]oxazine-2-carboxamide, N-[(2-chloro-6-fluorophenyl)methyl]-4,6,7,9-tetrahydro-3-hydroxy-9,9-dimethyl-4-oxo-] | 0.002 to 0.1
Cc1ccc(Cl)c(CNC(=O)c2nc3n(c(=O)c2O)CCOC3(C)C)c1F [Example 274, Pyrimido[2,1-c][1,4]oxazine-2-carboxamide, N-[(6-chloro-2-fluoro-3-methylphenyl)methyl]-4,6,7,9-tetrahydro-3-hydroxy-9,9-dimethyl-4-oxo-] | 0.002 to 0.1
Cc1ccc(F)c(CNC(=O)c2nc3n(c(=O)c2O)CCOC3(C)C)c1F [Example 275, Pyrimido[2,1-c][1,4]oxazine-2-carboxamide, N-[(2,6-difluoro-3-methylphenyl)methyl]-4,6,7,9-tetrahydro-3-hydroxy-9,9-dimethyl-4-oxo-] | 0.002 to 0.1
Cc1ccc(CNC(=O)c2nc3n(c(=O)c2O)CCOC3(C)C)c(F)c1F [Example 276, Pyrimido[2,1-c][1, 4]oxazine-2-carboxamide, N-[(2,3-difluoro-4-methylphenyl)methyl]-4,6,7,9-tetrahydro-3-hydroxy-9,9-dimethyl-4-oxo-] | 0.002 to 0.1
CC1(C)OCCn2c1nc(C(=O)NCc1ccc(Cl)cc1F)c(O)c2=O [Example 277, Pyrimido[2,1-c][1,4]oxazine-2-carboxamide, N-[(4-chloro-2-fluorophenyl)methyl]-4,6,7,9-tetrahydro-3-hydroxy-9,9-dimethyl-4-oxo-] | 0.002 to 0.1
Cc1ccc(F)c(CNC(=O)c2nc3n(c(=O)c2O)CCOC3(C)C)c1Cl [Example 278, Pyrimido[2,1-c][1,4]oxazine-2-carboxamide, N-[(2-chloro-6-fluoro-3-methylphenyl)methyl]-4,6,7,9-tetrahydro-3-hydroxy-9,9-dimethyl-4-oxo-] | 0.002 to 0.1
Cn1ccc2c(CNC(=O)c3nc4n(c(=O)c3O)CCOC4(C)C)cccc21 [Example 279, Pyrimido[2,1-c][1,4]oxazine-2-carboxamide, 4,6,7,9-tetrahydro-3-hydroxy-9,9-dimethyl-N-[(1-methyl-1H-indol-4-yl)methyl]-4-oxo-] | 0.002 to 0.1
CC1(C)OCCCn2c1nc(C(=O)NCc1ccc(F)cc1N1CCC1=O)c(O)c2=O [Example 280, 6H-Pyrimido[2,1-c][1,4]oxazepine-2-carboxamide, N-[[4-fluoro-2-(2-oxo-1-azetidinyl)phenyl]methyl]-4,7,8,10-tetrahydro-3-hydroxy-10,10-dimethyl-4-oxo-] | 0.002 to 0.1
